Data published in patent publication US20250333745A1, “METHODS AND COMPOSITIONS FOR TREATMENT OF POLYCYSTIC KIDNEY DISEASE” (Regulus Therapeutics Inc., priority 2016, published 2025).

Key:
Pkd2-KO mice = assay: Efficacy in the Pkd2-KO model of PKD; type: in vivo, mouse; conditions: for BUN (mean) / Cystic Index (mean) / KW/BW Ratio (mean) / Serum Creatinine (mean): 20 mg/kg s.c. on days 10, 11, 12, 19 of age, sacrificed at 28 days
Text: (§1) Two experimental models of PKD were used to evaluate efficacy. Pkd2-KO mice spontaneously develop polycystic kidney disease, and were used as a model of ADPKD. See Patel et al., PNAS, 2013; 110 (26): 10765-10770. Pcy mice bearing a mutation in Nphp3 spontaneously develop polycystic kidney disease, with a slower progression of disease than that observed in the Pkd2-KO mice. The Pcy model is used as a model of nephronophthisis. See Happe and Peters, Nat. Rev. Nephrol., 2014; 10:587-601.
RG4326 was tested in the Pkd2-KO mouse model of ADPKD. This model is also referred to as the PKD2-KO model. Wild-type mice were used as control mice. An oligonucleotide complementary to a miRNA unrelated to miR-17 was used as a treatment control for specificity (RG5124).
On each of days 10, 11 12, and 19 of age, sex-matched littermates of mice were administered a subcutaneous injection of RG4326 at a dose of 20 mg/kg (n=12), RG5124 at a dose of 20 mg/kg (n=12), tool anti-miR-17 at a dose of 20 mg/kg (n=12), or PBS (n=12). Mice were sacrificed at 28 days of age, and kidney weight, body weight, cyst index, serum creatinine level, and blood urea nitrogen (BUN) level were measured. BUN level is a marker of kidney function. A higher BUN level correlates with poorer kidney function, thus a reduction in BUN level is an indicator of reduced kidney injury and damage and improved function. Statistical significance was calculated by one-way ANOVA with Dunnett's multiple correction.
(§2) Cyst index is a histological measurement of cystic area relative to total kidney area. For this analysis, one kidney was perfused with cold PBS and 4% (wt/vol) paraformaldehyde and then harvested. Kidneys were fixed with 4% paraformaldehyde for 2 hours and then, embedded in paraffin for sectioning. Sagittal sections of kidneys were stained with hematoxylin and eosin (H&E). All image processing steps were automated and took place in freely available and open source software: An R1 script which used functions from the EBImage Bioconductor package2 and the ImageMagick3 suite of image processing tools. Kidney H&E images in Aperio SVS format were converted to TIFF images, and the first frame was retained for image analysis. First, the total kidney section area was calculated using image segmentation. Image segmentation was similarly used to find all internal structures including kidney cyst. A filter was applied to remove all objects less than a mean radius of three pixels. The cystic index is the image area associated with cysts divided by the total kidney areas. Cystic index was separately calculated for longitudinal and transverse kidney sections for each individual animal. Combined cystic index of individual animals were compared for each treatment groups.

Pcy mice = assay: Efficacy in the Pcy model of PKD; type: in vivo, mouse; conditions: for BUN (mean) / Cystic Index (mean) / KW/BW Ratio (mean): 25 mg/kg s.c. for oligonucleotides, sacrificed at 15 weeks of age
Text: as §1, §2
RG4326 was tested in the Pcy mouse model. Wild-type mice were used as control group. From four weeks of age, Pcy mice were treated once per week via subcutaneous injection with RG4326 at a dose of 25 mg/kg, tool anti-miR-17 at a dose of 25 mg/kg, control oligonucleotide RG5124 at a dose of 25 mg/kg, or PBS. Each treatment group contained 15 male mice. Three treatments were administered on […] days of age, and weekly thereafter at 6, 7, 8, 9, 10, 11, 12, 13, and 14 weeks of age. Also tested was tolvaptan, a vasopressin V2-receptor antagonist (VRA) that is prescribed to some patients with polycystic kidney disease. Mice were sacrificed at 15 weeks of age. Body weight was recorded. One kidney was extracted and weighed and the other processed for histological analysis to calculate cyst index as described for the study in the Pkhd1/cre; Pkd2^F/F. Blood urea nitrogen (BUN) level and serum creatinine level were measured. Statistical significance was calculated by one-way ANOVA with Dunnett's multiple correction.

[1] = 20 mg/kg, not statistically significant

Row | Compound | effect on KW/BW ratio, BUN and cyst index (in words) (Pkd2-KO mice; 20 mg/kg) | efficacy on KW/BW ratio, BUN or cyst index (in words) (Pcy mice) | BUN (mean) (Pkd2-KO mice) [mg/dL] | Cystic Index (mean) (Pkd2-KO mice) | KW/BW Ratio (mean) (Pkd2-KO mice) [mg/g] | Serum Creatinine (mean) (Pkd2-KO mice) [mg/dL] | Mean serum creatinine levels lower than in PBS mice (Pkd2-KO mice; [1]) [%] | mean reduction in cyst index compared to PBS (Pkd2-KO mice; [1]) [%] | mean KW/BW ratio lower than in PBS mice (Pkd2-KO mice; 20 mg/kg, p=0.0099) [%] | BUN (mean) (Pcy mice) | Cystic Index (mean) (Pcy mice) | KW/BW Ratio (mean) (Pcy mice) | mean KW/BW ratio lower relative to PBS-treated mice (Pcy mice; 25 mg/kg, p=0.0055) [%] | BUN reduced relative to PBS-treated mice (Pcy mice; 25 mg/kg, p=0.0070) [%] | cyst index reduced compared to PBS (Pcy mice; 25 mg/kg, p=0.016) [%]
1 | 5′-CTGCACTGTAAGCACTTTG-3′ (all phosphorothioate, sugars by position and methylation of C not given here; DNA, 2'-MOE and S-cEt sugars) [Tool anti-miR-17, reference compound] | no statistically significant changes were observed | did not result in statistically significant reductions |  |  |  |  |  |  |  |  |  |  |  |  | 
2 | COC1C(OP(=O)(S)OC[C@H]2O[C@@H](n3cnc4c(N)ncnc43)C(F)C2OP(=O)(S)OC[C@H]2O[C@@H](n3ccc(N)nc3=O)C(F)C2OP(=O)(S)OC[C@H]2O[C@@H](n3ccc(=O)[nH]c3=O)C(F)C2OP(=O)(S)OC[C@H]2O[C@@H](n3ccc(=O)[nH]c3=O)C(OC)C2OP(=O)(S)OC[C@]23O[C@@H](n4ccc(=O)[nH]c4=O)C(O[C@H]2C)C3OP(=O)(S)OC[C@]23O[C@@H](n4cnc5c(=O)[nH]c(N)nc54)C(O[C@H]2C)C3O)[C@@H](COP(=O)(S)OC2C3O[C@@H](C)[C@]2(COP(=O)(S)OC2C4O[C@@H](C)[C@]2(CO)O[C@H]4n2cnc4c(N)ncnc42)O[C@H]3n2cnc3c(=O)[nH]c(N)nc32)O[C@H]1n1ccc(N)nc1=O (stereo in doubt) [RG4326, ASGSCMAFCFUFUMUSGS] |  |  | 72.92 | 50.3 | 40.98 | 0.26 | 18 | 12 | 29 | 19.7 | 0.16 | 18.1 | 19 | 16 | 34
3 | ASCSAMAFUFGFCMASCS [RG5124, reference compound] | did not reduce kidney weight to body weight ratio, cyst index, or BUN | did not result in statistically significant reductions | 86.67 | 56.67 | 55.35 | 0.31 |  |  |  | 21.2 | 0.23 | 21.4 |  |  | 
